Tests used:
Ilyonectria destructans [1] = test: N-Acylation of compound was determined after 22 hr incubation at 250 mg/mL concentration using Cylindrocarpon radicicola resting cells and residual amine was evaluated
Ilyonectria destructans [2] = test: N-Acylation of amine was determined after 22 hr incubation at 250 mg/mL concentration using Cylindrocarpon radicicola resting cells to amide expressed as enantioselectivity coefficient (amine/amide): 59/41
Ilyonectria destructans [3] = test: N-Acylation of amine was determined after 22 hr incubation at 250 mg/mL concentration using Cylindrocarpon radicicola resting cells to amide expressed as enantioselectivity coefficient (amine/amide): 65/35
Ilyonectria destructans [4] = test: N-Acylation of amine was determined after 22 hr incubation at 250 mg/mL concentration using Cylindrocarpon radicicola resting cells to amide expressed as enantioselectivity coefficient (amine/amide): 52/48
Ilyonectria destructans [5] = test: N-Acylation of amine was determined after 22 hr incubation at 250 mg/mL concentration using Cylindrocarpon radicicola resting cells to amide expressed as enantioselectivity coefficient (amine/amide): 48/52
Ilyonectria destructans [6] = test: N-Acylation of amine was determined after 22 hr incubation at 250 mg/mL concentration using Cylindrocarpon radicicola resting cells to amide expressed as enantioselectivity coefficient (amine/amide): 53/47

Structure (SMILES)	Residual amine (ee) (Ilyonectria destructans [1]) [%]	also measured
NC(c1ccccc1)c1ccc(Cl)cc1 (stereo not given)	0	Enantioselectivity coefficient (Ilyonectria destructans [2]): 59
CC(CN)c1ccccc1 (stereo not given)	0	Enantioselectivity coefficient (Ilyonectria destructans [3]): 65
NC1CCc2ccccc21 (stereo not given)	0	Enantioselectivity coefficient (Ilyonectria destructans [4]): 52
NC(Cc1ccccc1)c1ccccc1 (stereo not given)	80	Enantioselectivity coefficient (Ilyonectria destructans [5]): 48
CC(N)COc1ccccc1 (stereo not given)	95	Enantioselectivity coefficient (Ilyonectria destructans [6]): 53

Reference: ChEMBL document CHEMBL1127217, “Enantioselective acetylation of primary amines by Cylindrocarpon radicicola” (Bioorg Med Chem Lett, 1993)
